Measurements reported in patent US8642834B2, “Methods for the identification of agents that inhibit mesenchymal-like tumor cells or their formation” (OSI Pharmaceuticals, LLC, priority 2009, dated 2014).

System: CFPAC1 cells
Experiment: Transcriptional changes to EMT genes, qPCR
Type: cell-based, human
Description: The CFPAC1 cell line was cultured in DMEM media (Gibco #11960) supplemented with 10% FBS (Sigma), 2 mM L Glutamine (Gibco), at 37° C., 5% CO2. For 7 day treatments, cells were seeded on tissue culture plastic in complete growth media and allowed to attach overnight at cell densities that would provide approximately 60-80% confluence at end of experiment. Ligand and/or inhibitor was added the following day (Day 0) in complete growth media and incubated at 37° C., 5% CO2. Ligand source and concentrations used are as follows: [1] From R&D systems, SDF-1α (stromal derived factor-1 alpha) at 100 ng/ml, TRANCE (TNF-related activation induced cytokine) at 50 ng/ml, FGF1 (fibroblast growth factor acidic) at 10 ng/ml, FGF2 (fibroblast growth factor basic) at 10 ng/ml, BMP4 (bone morphogenetic protein 4) at 100 ng/ml, BMP7 (bone morphogenetic protein 7) at 100 ng/ml, IGF2 (insulin-like growth factor 2) at 100 ng/ml, OSM (Oncostatin M) at 100 ng/ml, NRG1 (Neuregulin-1) at 50 ng/ml, PDGFaa (Platelet derived growth factor a) at 50 ng/ml, PDGFbb (platelet derive growth factor b) at 30 ng/ml, Ang2 (Angiopoeitin 2) at 400 ng/ml, amphiregulin at 100 ng/ml, HMGB 1 (Human high-mobility group box 1 protein) at 50 ng/ml; [2] From Genscript, LIF (Leukemia inhibitory factor) at 20 ng/ml, GM-CSF (Granulocyte macrophage colony stimulating factor) at 25 ng/ml, M-CSF (Macrophage colony stimulating factor) at 50 ng/ml; [3] From Anaspec, PAR1 (Protease activated receptor 1 agonist) at 100 μM; PAR2 (Protease activated receptor 2 agonist; peptide SLIGKV-NH2, Cat. No. 60217-1) at 100 μM; PAR4 (Protease activated receptor […] agonist; peptide AYPGKF-NH2, Cat. No. 60218-1) at 100 μM; [4] From Peprotech, HGF (Hepatocyte Growth Factor) at 100 ng/ml; IL-31 (Interleukin-31) at 50 ng/ml, IL-33 (Interleukin-33) at 50 ng/ml, IL1-a (Interleukin-1 alpha) at 10 ng/ml, CTGF (Connective tissue growth factor) at 20 ng/ml, WISP1 (Wnt-1 inducible signaling pathway protein) at 20 ng/ml, PTHrP ([…] hormone-related protein) at 50 ng/ml, MCP1 (monocyte chemotactic protein-1) at 50 ng/ml; and [5] from Sigma, Fulvestrant at 1 μM. Fresh medium containing ligand and/or inhibitor was added 3-4 days after initial dose, and at Day 7 cells were harvested for western blot analysis.
Cells were plated and treated with ligand for one or 7 days. At the time of harvest, cells were trypsinized and snap frozen for later use. Total RNA was isolated using RNAqueous-4 PCR Kit (Ambion, AM1914). For qPCR on tumor material, the tumor samples were homogenized using a small tissue homogenizer (Ultra-Turrax T8 from IKA-Werke) in 175ul RNA lysis buffer. Homogenization was for 1 minute on ice. RNA was isolated using the SV Total RNA Isolation System (Promega Cat #Z3100) according to the manufactures instructions. Samples were DNase treated using the Turbo DNA-Free kit (Ambion, AM1907) and reverse transcribed using Superscript III (Invitrogen, 18080-044) for qPCR analysis. Taqman primers and Locked-Nucleic Acid probes were designed using ProbeFinder software (Universal Probe library, Roche). For mRNA analysis, real time PCR was performed using the ABI 7900HT series PCR machine. Thermocycle conditions were as follows: 50° C. for 2 minutes, 95° C. for 10 minutes, 95° C. for 15 seconds, 50° C. for 10 seconds, 60° C. for 1 minute. Data was collected over 45 cycles and then normalized to GAPDH and further normalized to the untreated control sample.

HGF: Hepatocyte Growth Factor from Peprotech, used at 100 ng/ml
ACTN1 mRNA fold change (ligand 1 Day): NC (Only changes greater than 3 fold are reported. NC indicates no change.) | CDH1 mRNA fold change (ligand 1 Day): NC (Only changes greater than 3 fold are reported. NC indicates no change.) | CDH2 mRNA fold change (ligand 1 Day): NC (Only changes greater than 3 fold are reported. NC indicates no change.) | ITGB3 mRNA fold change (ligand 1 Day): NC (Only changes greater than 3 fold are reported. NC indicates no change.) | MMP7 mRNA fold change (ligand 1 Day): NC (Only changes greater than 3 fold are reported. NC indicates no change.) | MTA3 mRNA fold change (ligand 1 Day): NC (Only changes greater than 3 fold are reported. NC indicates no change.) | PLAUR mRNA fold change (ligand 1 Day): NC (Only changes greater than 3 fold are reported. NC indicates no change.) | SNAI1 mRNA fold change (ligand 1 Day): NC (Only changes greater than 3 fold are reported. NC indicates no change.) | SNAI2 mRNA fold change (ligand 1 Day): NC (Only changes greater than 3 fold are reported. NC indicates no change.) | SPARC mRNA fold change (ligand 1 Day): NC (Only changes greater than 3 fold are reported. NC indicates no change.) | TWIST1 mRNA fold change (ligand 1 Day): NC (Only changes greater than 3 fold are reported. NC indicates no change.) | VIM mRNA fold change (ligand 1 Day): NC (Only changes greater than 3 fold are reported. NC indicates no change.) | ZEB1 mRNA fold change (ligand 1 Day): NC (Only changes greater than 3 fold are reported. NC indicates no change.) | ZEB2 mRNA fold change (ligand 1 Day): NC (Only changes greater than 3 fold are reported. NC indicates no change.) | ACTN1 mRNA fold change (ligand 7 Day): NC (Only changes greater than 3 fold are reported. NC indicates no change.) | CDH1 mRNA fold change (ligand 7 Day): NC (Only changes greater than 3 fold are reported. NC indicates no change.) | CDH2 mRNA fold change (ligand 7 Day): NC (Only changes greater than 3 fold are reported. NC indicates no change.) | ITGB3 mRNA fold change (ligand 7 Day): 3.57 fold | MMP7 mRNA fold change (ligand 7 Day): NC (Only changes greater than 3 fold are reported. NC indicates no change.) | MTA3 mRNA fold change (ligand 7 Day): NC (Only changes greater than 3 fold are reported. NC indicates no change.) | PLAUR mRNA fold change (ligand 7 Day): NC (Only changes greater than 3 fold are reported. NC indicates no change.) | SNAI1 mRNA fold change (ligand 7 Day): NC (Only changes greater than 3 fold are reported. NC indicates no change.) | SNAI2 mRNA fold change (ligand 7 Day): NC (Only changes greater than 3 fold are reported. NC indicates no change.) | SPARC mRNA fold change (ligand 7 Day): −5.41 fold | TWIST1 mRNA fold change (ligand 7 Day): 612 fold | VIM mRNA fold change (ligand 7 Day): NC (Only changes greater than 3 fold are reported. NC indicates no change.) | ZEB1 mRNA fold change (ligand 7 Day): NC (Only changes greater than 3 fold are reported. NC indicates no change.) | ZEB2 mRNA fold change (ligand 7 Day): NC (Only changes greater than 3 fold are reported. NC indicates no change.)
